Values of other authors in PMC3057427 (ACS combinatorial science, 2011).

Structure (SMILES)	efficacy in anti-Parkinsonian animal models
O=C(Nc1cc(Cl)cc(Cl)c1)[C@H]1CCCC[C@H]1C(=O)O [Compound 2]	display efficacy
COc1cc(NC(=O)c2ccccn2)ccc1Cl [Compound 6]	display efficacy
